Laboratory results taken from US11484539B2, “Compounds and their uses for alleviating menopause-associated symptoms” (Estetra SPRL, priority 2018, dated 2022).

System: post-menopausal women
Experiment: Weekly severity of moderate to severe VMS, dose-finding study
Type: in vivo
From the text: To determine the Minimum Effective Dose (MED), firstly the selection criteria required that patients presented at least 7 moderate to severe VMS/day or at least 50 moderate to severe VMS/week in the week preceding randomization. Secondly, a placebo group was included in a double-blind fashion. Thirdly, the total patient number was such that statistical significance could be obtained between separate arms of the study. Fourthly, the absolute change from baseline in weekly frequency of moderate to severe VMS was taken into account. An analysis of covariance (ANCOVA) was performed based on the untransformed change in weekly frequency of moderate to severe VMS from baseline. Finally, the change in severity from baseline was evaluated. For this, the Severity Scoring System of VMS was documented by the subjects as follows: • a score of Mild (1) for a sensation of heat without sweating; • a score of Moderate (2) for a sensation of heat with sweating/the subject is able to continue activity; and • a score of Severe (3) for a sensation of heat with sweating/which causes cessation of activity.
In addition, a severity score of zero was attributed to the patients who have experienced a 100% VMS relief during a given week.
From these score records, the severity at baseline was calculated by taking into account only moderate and severe VMS, such that the total number of moderate VMS during the 7 days of the baseline week was multiplied by 2 and added to the total number of severe VMS during the 7 days of the baseline week multiplied by 3. This total was then divided by the total number of moderate and severe VMS during the baseline week.
The severity at weeks 4 and 12 was calculated using the following formula for each of these weeks: • the number of mild VMS during 7 days multiplied by 1; • the number of moderate VMS during 7 days multiplied by 2; • the number of severe VMS during 7 days multiplied by 3. and adding the 3 resulting numbers together before dividing this total by the total number of mild, moderate and severe VMS during the 7 days of the week.
This method was used to generate the data included in Example 1 further below, under section A. b) “VMS Severity”.
In order to better analyse the data recorded in this study, treatment groups have been compared using an ANCOVA (analysis of covariance) with respect to the change in severity of moderate to severe VMS from baseline to mild, moderate and severe VMS at week 4 and week 12 for each active treatment versus placebo. For women who experienced 100% VMS relief at week 4 and/or week 12, a value of zero was attributed. The ANCOVA model includes treatment (“trt1”) as a fixed effect and baseline (“base”) as a covariate. • b) Covariate significance

## C[C@]12CC[C@@H]3c4ccc(O)cc4CC[C@H]3[C@@H]1[C@@H](O)[C@@H](O)[C@@H]2O [E4, 1,3,5 (10)-estratrien-3,15alpha,16alpha,17beta-tetrol]
2.5 mg E4, week 4
  LS adjusted mean change from baseline in weekly severity of moderate to severe VMS: −0.3411
  LS adjusted mean relative change from baseline in weekly severity of moderate to severe VMS: −0.1453
2.5 mg E4, week 12
  LS adjusted mean change from baseline in weekly severity of moderate to severe VMS: −0.6296
  LS adjusted mean relative change from baseline in weekly severity of moderate to severe VMS: −0.275
2.5 mg E4 QD per os, week 1
  Mean change from baseline in weekly severity of moderate to severe VMS: −0.1542
  Relative change (% from baseline) in weekly severity of moderate to severe VMS, mean: −7%
2.5 mg E4 QD per os, week 2
  Mean change from baseline in weekly severity of moderate to severe VMS: −0.2112
  Relative change (% from baseline) in weekly severity of moderate to severe VMS, mean: −9%
2.5 mg E4 QD per os, week 3
  Mean change from baseline in weekly severity of moderate to severe VMS: −0.3246
  Relative change (% from baseline) in weekly severity of moderate to severe VMS, mean: −14%
2.5 mg E4 QD per os, week 4
  Mean change from baseline in weekly severity of moderate to severe VMS: −0.3373
  Relative change (% from baseline) in weekly severity of moderate to severe VMS, mean: −15%
2.5 mg E4 QD per os, week 5
  Mean change from baseline in weekly severity of moderate to severe VMS: −0.3984
  Relative change (% from baseline) in weekly severity of moderate to severe VMS, mean: −17%
2.5 mg E4 QD per os, week 6
  Mean change from baseline in weekly severity of moderate to severe VMS: −0.5014
  Relative change (% from baseline) in weekly severity of moderate to severe VMS, mean: −22%
2.5 mg E4 QD per os, week 7
  Mean change from baseline in weekly severity of moderate to severe VMS: −0.4562
  Relative change (% from baseline) in weekly severity of moderate to severe VMS, mean: −20%
2.5 mg E4 QD per os, week 8
  Mean change from baseline in weekly severity of moderate to severe VMS: −0.5359
  Relative change (% from baseline) in weekly severity of moderate to severe VMS, mean: −24%
2.5 mg E4 QD per os, week 9
  Mean change from baseline in weekly severity of moderate to severe VMS: −0.5465
  Relative change (% from baseline) in weekly severity of moderate to severe VMS, mean: −24%
2.5 mg E4 QD per os, week 10
  Mean change from baseline in weekly severity of moderate to severe VMS: −0.6052
  Relative change (% from baseline) in weekly severity of moderate to severe VMS, mean: −26%
2.5 mg E4 QD per os, week 11
  Mean change from baseline in weekly severity of moderate to severe VMS: −0.5564
  Relative change (% from baseline) in weekly severity of moderate to severe VMS, mean: −25%
2.5 mg E4 QD per os, week 12
  Mean change from baseline in weekly severity of moderate to severe VMS: −0.6279
  Relative change (% from baseline) in weekly severity of moderate to severe VMS, mean: −28%
2.5 mg E4 vs placebo, week 4
  Difference with placebo, LS adjusted mean, absolute change in weekly severity of moderate to severe VMS: −0.01329
  Difference with placebo, LS adjusted mean, relative change in weekly severity of moderate to severe VMS: −0.004358
2.5 mg E4 vs placebo, week 12
  Difference with placebo, LS adjusted mean, absolute change in weekly severity of moderate to severe VMS: 0.02869
  Difference with placebo, LS adjusted mean, relative change in weekly severity of moderate to severe VMS: 0.004705
5 mg E4, week 4
  LS adjusted mean change from baseline in weekly severity of moderate to severe VMS: −0.2386
  LS adjusted mean relative change from baseline in weekly severity of moderate to severe VMS: −0.09556
5 mg E4, week 12
  LS adjusted mean change from baseline in weekly severity of moderate to severe VMS: −0.4026
  LS adjusted mean relative change from baseline in weekly severity of moderate to severe VMS: −0.1649
5 mg E4 QD per os, week 1
  Mean change from baseline in weekly severity of moderate to severe VMS: −0.098
  Relative change (% from baseline) in weekly severity of moderate to severe VMS, mean: −4%
5 mg E4 QD per os, week 2
  Mean change from baseline in weekly severity of moderate to severe VMS: −0.1199
  Relative change (% from baseline) in weekly severity of moderate to severe VMS, mean: −5%
5 mg E4 QD per os, week 3
  Mean change from baseline in weekly severity of moderate to severe VMS: −0.1574
  Relative change (% from baseline) in weekly severity of moderate to severe VMS, mean: −7%
5 mg E4 QD per os, week 4
  Mean change from baseline in weekly severity of moderate to severe VMS: −0.2341
  Relative change (% from baseline) in weekly severity of moderate to severe VMS, mean: −10%
5 mg E4 QD per os, week 5
  Mean change from baseline in weekly severity of moderate to severe VMS: −0.1683
  Relative change (% from baseline) in weekly severity of moderate to severe VMS, mean: −7%
5 mg E4 QD per os, week 6
  Mean change from baseline in weekly severity of moderate to severe VMS: −0.3212
  Relative change (% from baseline) in weekly severity of moderate to severe VMS, mean: −14%
5 mg E4 QD per os, week 7
  Mean change from baseline in weekly severity of moderate to severe VMS: −0.2787
  Relative change (% from baseline) in weekly severity of moderate to severe VMS, mean: −12%
5 mg E4 QD per os, week 8
  Mean change from baseline in weekly severity of moderate to severe VMS: −0.3239
  Relative change (% from baseline) in weekly severity of moderate to severe VMS, mean: −14%
5 mg E4 QD per os, week 9
  Mean change from baseline in weekly severity of moderate to severe VMS: −0.3249
  Relative change (% from baseline) in weekly severity of moderate to severe VMS, mean: −14%
5 mg E4 QD per os, week 10
  Mean change from baseline in weekly severity of moderate to severe VMS: −0.3667
  Relative change (% from baseline) in weekly severity of moderate to severe VMS, mean: −15%
5 mg E4 QD per os, week 11
  Mean change from baseline in weekly severity of moderate to severe VMS: −0.4161
  Relative change (% from baseline) in weekly severity of moderate to severe VMS, mean: −18%
5 mg E4 QD per os, week 12
  Mean change from baseline in weekly severity of moderate to severe VMS: −0.4007
  Relative change (% from baseline) in weekly severity of moderate to severe VMS, mean: −17%
5 mg E4 vs placebo, week 4
  Difference with placebo, LS adjusted mean, absolute change in weekly severity of moderate to severe VMS: 0.08925
  Difference with placebo, LS adjusted mean, relative change in weekly severity of moderate to severe VMS: 0.04543
5 mg E4 vs placebo, week 12
  Difference with placebo, LS adjusted mean, absolute change in weekly severity of moderate to severe VMS: 0.2557
